Numbered stars: 1 amine (or outer) side, 2 acyl side, 3 side chain; on linkers, the order of the positions; unused ones are H or OH. Bridge positions count the residues as written; N and C are the ends. Square brackets hold non-standard residues; d marks the D form. Side chains are listed from the residue outwards. Peptide text beside a SMILES is read from it. * marks the point of attachment. ξ: configuration not given here. Acetyl(4-DOTA-piperazinyl) = O=C(O)CN1CCN(CC(=O)O)CCN(CC(=O)N2CCN(CC(=O)*)CC2)CCN(CC(=O)O)CC1; X2 = O=C(O)CN1CCN(CC(=O)O)CCN(CC(=O)N2CCN(CCCN*)CC2)CCN(CC(=O)O)CC1; X1 = O=C(O)CN1CCN(CC(=O)O)CCN(CC(=O)CCCN*)CCN(CC(=O)O)CC1; DOTA = O=C(O)CN1CCN(CC(=O)O)CCN(CC(=O)*)CCN(CC(=O)O)CC1; Azetidine3carboxylic = O=C(C1CN([*:1])C1)[*:2]; mXylylene = c1cc(C[*:1])cc(C[*:2])c1; Cha = N[C@@H](CC1CCCCC1)C(=O)O; Dab = NCC[C@H](N)C(=O)O; Dap = NC[C@H](N)C(=O)O; Aoc = NCCCCCCCC(=O)O; CO = O=C([*:1])[*:2]; ξP = O=C(O)C1CCCN1; ξC = NC(CS)C(=O)O; NHBu = CCCCN*
Legend:
[1] = target: T1, FAP protein (Homo sapiens, UniProt Q12884); assay: Biacore test of compound affinity to FAP protein; conditions: Biacore 8K, SA chip, 15° C., 1:1 binding model; read-out: pKD (FAP) (converted)
T1 construct: purchased Sinobiological
T1 sequence (Q12884 1-760): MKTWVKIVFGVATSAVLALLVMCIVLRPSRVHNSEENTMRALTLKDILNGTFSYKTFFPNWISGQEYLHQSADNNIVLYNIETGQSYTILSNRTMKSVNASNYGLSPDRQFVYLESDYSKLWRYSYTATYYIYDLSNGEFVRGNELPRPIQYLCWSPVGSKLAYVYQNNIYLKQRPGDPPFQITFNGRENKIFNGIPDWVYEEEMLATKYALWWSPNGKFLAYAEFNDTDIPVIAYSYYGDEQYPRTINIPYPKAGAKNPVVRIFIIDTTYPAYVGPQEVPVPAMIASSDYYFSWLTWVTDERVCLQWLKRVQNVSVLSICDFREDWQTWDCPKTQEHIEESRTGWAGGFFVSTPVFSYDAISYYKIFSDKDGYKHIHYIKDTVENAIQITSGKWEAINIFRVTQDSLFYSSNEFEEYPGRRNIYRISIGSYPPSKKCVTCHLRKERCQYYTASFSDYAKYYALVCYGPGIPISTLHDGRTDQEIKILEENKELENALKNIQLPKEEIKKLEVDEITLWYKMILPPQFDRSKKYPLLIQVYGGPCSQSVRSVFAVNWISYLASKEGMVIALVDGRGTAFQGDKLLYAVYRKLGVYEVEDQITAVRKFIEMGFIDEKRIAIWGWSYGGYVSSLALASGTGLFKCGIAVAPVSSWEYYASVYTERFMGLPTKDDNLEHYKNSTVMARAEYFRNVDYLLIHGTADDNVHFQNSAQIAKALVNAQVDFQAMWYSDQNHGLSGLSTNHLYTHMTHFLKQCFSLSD
Outline: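 FAP captured on an SA chip; compounds run as analyte in single-cycle kinetics at 15° C (90 s contact, 1800 s dissociation, 30 μL/min), reference-subtracted (2-1). Sensorgrams fitted to a 1:1 binding model to give KD, reported as pKD = −log KD.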

[2] = target: T2, fibroblast activation protein (FAP) (Homo sapiens, UniProt Q12884); assay: Protease inhibition (selectivity) assay, FAP, Z-Gly-Pro-AMC substrate; format: biochemical; conditions: recombinant human FAP 1.2 nM
T2 sequence (Q12884 1-760): T1 sequence (Q12884 1-760)
Description: (§1) The specificity of the synthesized compounds for recombinant human dipeptidyl peptidase IV (DPPIV), fibroblast activation protein (FAP), or prolyl oligopeptidase (PREP) was expressed by their half-maximal inhibitory concentration (IC50) against the proteases. […] No. I-1145.0050BA) in DMSO; DPPIV: 100 mM Gly-Pro-AMC (VWR, Cat. No. 100042-646) in DMSO), and the stock solution of the substrate was subsequently diluted 20-fold using the corresponding buffer described above. • 4) The enzyme was diluted into an appropriate assay buffer. […] Column 1 (A, B, C) was prepared using 200 μL of an appropriate analysis buffer as a control. Column 1 (D, E, F, G, H) was prepared with 20 μL of an appropriate assay buffer and 180 μL of the enzyme as the inhibitor-free control. • 5) Where appropriate, 20 μL of the test compound was added from the dilution plate prepared in step 2 to columns 2-10 of the assay plate. Each sample should be tested in triplicate. It was incubated at room temperature for 10 minutes, with the plate being shaken for the first two minutes. • 6) 10 μL of the 20× substrate prepared in step 3 was added to each well and incubated at room temperature for 15 minutes, with the plate being shaken for the first two minutes. • 7) Fluorescence was read at λex:380 and λem:460.

[3] = target: dipeptidyl peptidase IV (DPPIV) (Homo sapiens, UniProt P27487); assay: Protease inhibition (selectivity) assay, DPPIV, Gly-Pro-AMC substrate; format: biochemical; conditions: recombinant human DPPIV 0.1 nM; read-out: pIC50 (DPPIV) (converted)
Description: as §1

[4] = target: T3, prolyl oligopeptidase (PREP) (Homo sapiens, UniProt P48147); assay: Protease inhibition (selectivity) assay, PREP, Z-Gly-Pro-AMC substrate; format: biochemical; conditions: recombinant human PREP 0.6 nM
T3 sequence (P48147 1-710): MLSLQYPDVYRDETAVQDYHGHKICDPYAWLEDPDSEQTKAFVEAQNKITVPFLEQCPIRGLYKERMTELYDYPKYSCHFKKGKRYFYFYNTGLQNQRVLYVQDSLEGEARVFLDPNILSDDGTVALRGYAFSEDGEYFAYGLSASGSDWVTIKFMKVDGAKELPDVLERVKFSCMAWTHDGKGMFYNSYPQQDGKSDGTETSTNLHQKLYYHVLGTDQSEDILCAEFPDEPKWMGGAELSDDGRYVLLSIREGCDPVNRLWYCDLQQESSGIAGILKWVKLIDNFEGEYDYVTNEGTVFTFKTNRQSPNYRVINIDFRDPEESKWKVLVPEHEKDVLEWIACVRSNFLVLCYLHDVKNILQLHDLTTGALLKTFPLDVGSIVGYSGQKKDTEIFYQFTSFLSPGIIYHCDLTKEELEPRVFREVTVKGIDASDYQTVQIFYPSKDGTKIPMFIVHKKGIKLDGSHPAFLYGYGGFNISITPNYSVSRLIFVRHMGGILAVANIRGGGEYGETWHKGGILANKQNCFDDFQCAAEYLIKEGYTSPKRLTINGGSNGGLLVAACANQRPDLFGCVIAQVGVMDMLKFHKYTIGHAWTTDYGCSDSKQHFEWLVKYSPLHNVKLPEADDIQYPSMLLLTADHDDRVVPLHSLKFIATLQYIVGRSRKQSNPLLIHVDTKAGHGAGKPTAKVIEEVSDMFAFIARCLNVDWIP
Description: as §1

[5] = Animal body weight after injection of ^177Lu-labeled compound; conditions: Day 2
Description: 6- to 8-week-old (Balb/c Nude) mice were subcutaneously inoculated on the right scapula with 2×10^6 cells of HT1080 2 # (50% o Matrigel, Corning). When the tumors grew to the size as required by the assay, the animals were randomly assigned to 13 experimental groups based on tumor volume, with 5 animals per group. The body weight and tumor size were measured. On the day of grouping, administration was initiated for the control group (normal saline) and groups 1-12. General health and appearance were observed daily after the experiment began. Body weight and tumor size were measured prior to each sample collection time point. Any abnormal observations found during the entire study period were required to be recorded in the raw data.

dipeptidyl peptidase IV (DPPIV), sequence (P27487 whole entry): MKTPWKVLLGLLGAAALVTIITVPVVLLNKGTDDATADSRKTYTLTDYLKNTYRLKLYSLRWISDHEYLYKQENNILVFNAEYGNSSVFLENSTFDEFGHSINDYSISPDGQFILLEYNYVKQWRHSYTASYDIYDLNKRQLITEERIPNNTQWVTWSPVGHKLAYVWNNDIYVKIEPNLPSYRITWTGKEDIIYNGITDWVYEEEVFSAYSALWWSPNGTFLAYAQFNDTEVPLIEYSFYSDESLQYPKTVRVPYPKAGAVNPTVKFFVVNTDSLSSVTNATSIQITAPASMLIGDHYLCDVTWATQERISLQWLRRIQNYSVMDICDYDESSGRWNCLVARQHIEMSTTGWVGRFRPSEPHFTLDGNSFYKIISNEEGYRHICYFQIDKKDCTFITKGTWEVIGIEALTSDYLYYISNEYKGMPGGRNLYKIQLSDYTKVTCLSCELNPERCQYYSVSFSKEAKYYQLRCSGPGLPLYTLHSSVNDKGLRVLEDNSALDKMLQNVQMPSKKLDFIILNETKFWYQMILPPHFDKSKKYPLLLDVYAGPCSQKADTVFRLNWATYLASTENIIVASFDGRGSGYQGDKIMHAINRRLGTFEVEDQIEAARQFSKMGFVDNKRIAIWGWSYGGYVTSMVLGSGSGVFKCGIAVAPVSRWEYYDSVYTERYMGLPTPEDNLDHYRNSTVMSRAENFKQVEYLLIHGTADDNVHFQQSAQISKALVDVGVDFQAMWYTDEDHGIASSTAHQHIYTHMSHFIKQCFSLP

| Compound | Kd [1] | IC50 [2] | IC50 [3] | IC50 [4] | Animal body weight [5] |
| --- | --- | --- | --- | --- | --- |
| CCCCCC(=O)N[C@H]1CSCc2cccc(c2)CSC[C@@H](C(=O)N[C@@H](CCC(=O)NCCNC(=O)CN2CCN(CC(=O)O)CCN(CC(=O)O)CCN(CC(=O)O)CC2)C(=O)O)NC(=O)[C@H](Cc2ccccc2)NC(=O)[C@H](CCC(N)=O)NC(=O)[C@H]([C@@H](C)O)NC(=O)[C@@H]2CCCN2C(=O)C2CN(C2)C1=O [JHDC23, Hex[Cys(3MeBn)-hhy39-Pro-Thr-Gln-Phe-Cys]-Glu-(EDA-DOTA)-OH] | 10 to 100 nM | < 10 nM | > 1000 nM | > 1000 nM | – |
| CCCCNC(=O)N[C@H]1CSCc2cccc(c2)CSC[C@@H](C(=O)N[C@@H](CCC(=O)NCCCC(=O)CN2CCN(CC(=O)O)CCN(CC(=O)O)CCN(CC(=O)O)CC2)C(=O)O)NC(=O)[C@H](Cc2ccccc2)NC(=O)[C@H](CCC(N)=O)NC(=O)[C@H]([C@@H](C)O)NC(=O)[C@@H]2CCCN2C(=O)C2CN(C2)C1=O [JHDC24, nBu-urea-[Cys(3MeBn)-hhy39-Pro-Thr-Gln-Phe-Cys]-Glu-(EDA-DOTA)-OH] ({NHBu-CO}-C[Azetidine3carboxylic]PTQFCE(X1)-OH; linker 1-7 via mXylylene) | 10 to 100 nM | < 10 nM | > 1000 nM | > 1000 nM | – |
| CCCCNC(=O)N[C@H]1CSCc2cccc(c2)CSCC(C(=O)N[C@@H](CNC(=O)CN2CCN(C(=O)CN3CCN(CC(=O)O)CCN(CC(=O)O)CCN(CC(=O)O)CC3)CC2)C(=O)O)NC(=O)[C@H](CC2CCCCC2)NC(=O)[C@H](CCC(N)=O)NC(=O)[C@H]([C@@H](C)O)NC(=O)C2CCCN2C(=O)C2CN(C2)C1=O (stereo partly drawn) [JHDC47, nBu-urea-[Cys(3MeBn)-hhy39-Pro-Thr-Gln-hhy34-Cys]-DAPA-(Ac-piperazine-DOTA)-OH] ({NHBu-CO}-C[Azetidine3carboxylic][ξP]TQ[Cha][ξC][Dap](Acetyl(4-DOTA-piperazinyl))-OH; linker 1-7 via mXylylene) | < 10 nM | < 10 nM | > 1000 nM | > 1000 nM | – |
| CCCCNC(=O)N[C@H]1CSCc2cccc(c2)CSC[C@@H](C(=O)N[C@@H](CCC(=O)NCCCN2CCN(C(=O)CN3CCN(CC(=O)O)CCN(CC(=O)O)CCN(CC(=O)O)CC3)CC2)C(=O)O)NC(=O)[C@H](Cc2ccccc2)NC(=O)[C@H](CCC(N)=O)NC(=O)[C@H]([C@@H](C)O)NC(=O)C2CCCN2C(=O)C2CN(C2)C1=O (stereo partly drawn) [JHDC48, nBu-urea-[Cys(3MeBn)-hhy39-Pro-Thr-Gln-Phe-Cys]-Glu-(aminopropylpiperazine-DOTA)-OH] ({NHBu-CO}-C[Azetidine3carboxylic][ξP]TQFCE(X2)-OH; linker 1-7 via mXylylene) | 10 to 100 nM | < 10 nM | > 1000 nM | > 1000 nM | – |
| CCCCNC(=O)N[C@H]1CSCc2cccc(c2)CSCC(C(=O)N[C@@H](CCNC(=O)CCCCCCCNC(=O)CN2CCN(CC(=O)O)CCN(CC(=O)O)CCN(CC(=O)O)CC2)C(=O)O)NC(=O)[C@H](CC2CCCCC2)NC(=O)[C@H](CCC(N)=O)NC(=O)[C@H]([C@@H](C)O)NC(=O)C2CCCN2C(=O)C2CN(C2)C1=O (stereo partly drawn) [JHDC53, nBu-urea-[Cys(3MeBn)-hhy39-Pro-Thr-Gln-hhy34-Cys]-DABA-(AOA-DOTA)-OH] ({NHBu-CO}-C[Azetidine3carboxylic][ξP]TQ[Cha][ξC][Dab]([Aoc-DOTA])-OH; linker 1-7 via mXylylene) | 10 to 100 nM | < 10 nM | > 1000 nM | > 1000 nM | – |
| CCCCNC(=O)N[C@H]1CSCc2cccc(c2)CSCC(C(=O)N[C@@H](CCNC(=O)CNC(=O)CN2CCN(CC(=O)O)CCN(CC(=O)O)CCN(CC(=O)O)CC2)C(=O)O)NC(=O)[C@H](CC2CCCCC2)NC(=O)[C@H](CCC(N)=O)NC(=O)[C@H]([C@@H](C)O)NC(=O)[C@@H]2CCCN2C(=O)C2CN(C2)C1=O (stereo partly drawn) [JHDC56, nBu-urea-[Cys(3MeBn)-hhy39-Pro-Thr-Gln-hhy34-Cys]-DABA-(Gly-DOTA)-OH] | < 10 nM | < 10 nM | > 1000 nM | > 1000 nM | – |
| CCCCNC(=O)N[C@H]1CSCc2cccc(c2)CSCC(C(=O)N[C@@H](CNC(=O)CN2CCN(C(=O)CN3CCN(CC(=O)O)CCN(CC(=O)O)CCN(CC(=O)O)CC3)CC2)C(=O)O)NC(=O)[C@H](CC2CCCCC2)NC(=O)[C@H](CCC(N)=O)NC(=O)[C@H]([C@@H](C)O)NC(=O)C2CCCN2C(=O)C2CN(C2)C1=O (stereo partly shown) [^177Lu-JHDC47, metal not drawn] ({NHBu-CO}-C[Azetidine3carboxylic][ξP]TQ[Cha][ξC][Dap](Acetyl(4-DOTA-piperazinyl))-OH; linker 1-7 via mXylylene) | – | – | – | – | 16.00 ± 0.54 g |

From patent publication US20260274894A1, “CYCLIC POLYPEPTIDE COMPOUND AND USE THEREOF” (BIVISION PHARMACEUTICALS, INC., priority 2023, published 2026)
